This is an account of results in PubChem BioAssay (NCI).

What all share (assay): inhibition of tumour cell growth, NCI panel, 48 h
Test [1] relates to CCRF-CEM leukemia.
Test [2] deals with EKVX NSCLC.
Test [3] has as its system HT29 colon.
Test [4] relates to KM12 colon.
The subject of test [5] is MDA-MB-231 breast.
Test [6] relates to NCI-H23 lung.
Test [7] has as its system NCI-H460 lung.
Test [8] has as its system OVCAR-5 ovarian.
Test [9] deals with SK-MEL-2 melanoma.
Test [10] deals with SK-MEL-5 melanoma.

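Method: 48-hour compound exposure of cells in 96-well plates, five concentrations, linear interpolation of endpoints. GI50: concentration for 50% inhibition of growth. At the TGI there is no net growth.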

Take `COc1cc(C(=O)N/N=C/c2cccc([N+](=O)[O-])c2)cc(OC)c1OC`: the GI50 in [1] was 4.52 µM; in test [2], 18.7 µM; in [3], 2.89 µM; in test [4] it was 2.41 µM; in [5], 26.1 µM; in [6] it was 5.96 µM. Also, the GI50 in test [7] was 3.23 µM; in test [8] it was 39.7 µM; in test [9], 4.16 µM; in [10] it was 2.76 µM. Besides, the TGI in test [1] was above 100 µM; in test [2], above 100 µM; in test [3] it was 8.1 µM; in test [4] it was above 100 µM; in test [5] it was above 100 µM; in [6] it was above 100 µM. Besides, the TGI in [7], in test [8], in test [9] and in test [10] was above 100 µM each time.

For `CC(C)n1nc(C#Cc2cccc(NC(=O)c3cccc(C(F)(F)F)c3)c2)c2c(N)ncnc21`, the GI50 in test [1] was 2.73 µM; in [2], 3.46 µM; in test [3], 0.485 µM; in test [4] it was 3.41 µM; in [5], 0.256 µM; in test [6], 1.95 µM. Further, the GI50 was 3 µM in [7], 1.36 µM in test [8], 0.308 µM in test [9] and 2.55 µM in test [10]. In addition, the TGI in test [1] is above 100 µM; in test [2], above 100 µM; in [3] it was above 100 µM; in [4], above 100 µM; in test [5], 2.07 µM; in [6], 22.8 µM. Besides, the TGI in [7] is above 100 µM; in test [8] it was 27.7 µM; in test [9] it was 1.96 µM; in [10], 30.8 µM.

In the case of `O=c1[nH]c2cc(O)ccc2n2cc3c(F)cccc3c12`, the GI50 in test [1] is 2.68 µM; in test [2] it was 4.69 µM; in test [3] it was 5.33 µM; in test [4], 1.86 µM; in [5] it was 6.42 µM; in test [6] it was 3.86 µM. Moreover, the GI50 in [7] is 0.451 µM; in test [8] it was above 31.3 µM; in [9] it was above 21.2 µM; in test [10], 0.348 µM. The TGI in test [1], in test [2], in [3], in test [4], in test [5] and in test [6] was above 100 µM throughout. The TGI in [7], in [8], in test [9] and in [10] was above 100 µM throughout.

With `CCOC(=O)C1=C(c2ccccc2)N(Cc2ccccc2)C2(O)C=CC(=O)C3C(=O)N(c4ccccc4)C(=O)C132` (stereo not given), the GI50 in test [1] was 1.53 µM; in [2] it was 2.43 µM; in [3] it was 1.93 µM; in [4], 1.74 µM; in test [5] it was 2.2 µM; in [6] it was 2.12 µM. The GI50 was 1.53 µM in test [7], 3.23 µM in [8] and 1.49 µM in test [10]. Besides, the TGI in test [1] amounted to 7.03 µM; in [2], 6.51 µM; in test [3] it was 4.83 µM; in [4], 3.21 µM; in test [5] it was 4.98 µM; in test [6], 5.59 µM. The values for the TGI in test [7], in [8] and in test [10] were 3.49 µM, 15.5 µM and 2.93 µM, respectively.

Consider `Nc1ncnc2c1ncn2Cc1ccc(C23CC4CC(CC(C4)C2)C3)c(O)c1`, for which the GI50 was 3.97 µM in test [1]; 33.4 µM in test [2]; 15.1 µM in [3]; 13.7 µM in [4]; 13.6 µM in [5]; 11.8 µM in test [7]. Further, the GI50 in [8] is above 100 µM; in [9] it was above 100 µM; in test [10], 4.02 µM. In addition, the TGI was above 100 µM in test [1]; above 100 µM in test [2]; above 100 µM in [3]; above 100 µM in [4]; 63.1 µM in test [5]; above 100 µM in test [7]. Besides, the TGI was above 100 µM in test [8], above 100 µM in [9] and 88.2 µM in test [10].

On to `CCOc1cccnc1/C=N/NC(N)=S`, for which the GI50 is 3 µM in test [1]; 4.34 µM in test [3]; 4.38 µM in test [4]; 3.27 µM in test [5]; 5.05 µM in [6]; 3.48 µM in [7]. For the same compound, the GI50 is 6.37 µM in test [8], 9.93 µM in test [9] and 3.4 µM in test [10]. In addition, the TGI in test [1] is 12 µM; in [3] it was above 100 µM; in [4], above 100 µM; in test [5], above 100 µM; in test [6], above 100 µM; in test [7] it was above 100 µM. In addition, the TGI in test [8], in [9] and in test [10] was above 100 µM in each case.

With `CC(C)(C)c1ccc(S(=O)(=O)N[C@H]2CC[C@H]3[C@@H]4CCc5cc(O)ccc5[C@H]4CC[C@]23C)cc1`, the GI50 is 2.63 µM in test [1]; 1.96 µM in [3]; 1.93 µM in test [4]; 1.91 µM in test [5]; 2.03 µM in [6]; 1.98 µM in [7]. Further, the GI50 in [8] was 2.08 µM; in [9], 2.45 µM; in test [10], 1.65 µM. Moreover, the TGI in test [1] came to 7.79 µM; in [3] it was 3.74 µM; in test [4], 3.87 µM; in test [5] it was 4.13 µM; in test [6] it was 4.28 µM; in [7] it was 4.16 µM. Besides, the TGI in test [8] was 4.2 µM; in test [9], 4.89 µM; in test [10] it was 3.05 µM.

Consider `Cc1ccc(OCCCCCCNCCO)c(C)c1`, for which the GI50 was 15.6 µM in [1]; 11.3 µM in [3]; 17.2 µM in [4]; 9.11 µM in [5]; 15.5 µM in test [6]; 14.9 µM in [7]. Besides, the results for the GI50 in [8], in [9] and in [10] were 13.7 µM, 19.8 µM and 10.4 µM, respectively. Moreover, the TGI in [1] worked out at 36.7 µM; in test [3], 25.6 µM; in [4], 32.4 µM; in [5], 25.5 µM; in test [6] it was 35.4 µM; in test [7] it was 30.8 µM. Further, the figures for the TGI in [8], in test [9] and in test [10] were 28 µM, 37.6 µM and 22.4 µM, respectively.
